For two molecules, Kd results are on record in article doi:10.1101/2023.06.27.546672v1 (biorxiv, 2023).

This assay addresses T1, apo-sMlaD (Escherichia coli, UniProt P64604).
T1 sequence (P64604 29-183 limits assumed): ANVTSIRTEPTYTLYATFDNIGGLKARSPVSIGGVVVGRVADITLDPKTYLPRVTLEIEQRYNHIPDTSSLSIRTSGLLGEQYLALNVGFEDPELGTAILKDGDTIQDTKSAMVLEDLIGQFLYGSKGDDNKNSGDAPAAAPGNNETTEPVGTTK
Kind of assay: isothermal titration calorimetry. It is filed as binding.

`C[C@H](CCC(=O)O)[C@H]1CC[C@H]2[C@@H]3[C@H](O)C[C@@H]4C[C@H](O)CC[C@]4(C)[C@H]3CC[C@]12C` [CDOC]: the affinity, expressed as Kd, was 61.6 ± 15.6 µM.
For `C[C@H](CCC(=O)O)[C@H]1CC[C@H]2[C@@H]3CC[C@@H]4C[C@H](O)CC[C@]4(C)[C@H]3C[C@H](O)[C@]12C` [DOC] the value was approximately 100 µM.
